Residues, ends and D or L forms follow the SMILES beside them. No end group written: not given here.
How the values were obtained:
NPFF2 = assay: β-arrestin recruitment (Tango), known peptide receptors; type: cell-based, human; conditions: endogenous ligand(s) included in peptide library
Text: Supplement mmc6.xlsx, sheet "Peptide GPCR controls" | column: Confirmed?

GPR1 [1] = molecular target: T1, GPR1 (Homo sapiens, UniProt P46091); assay: β-arrestin recruitment (PathHunter); type: cell-based; conditions: for Emax, PathHunter (fold over basal) / pEC50, PathHunter (fold over basal): GPR1, mean, SEM and n
T1 sequence (P46091 1-355): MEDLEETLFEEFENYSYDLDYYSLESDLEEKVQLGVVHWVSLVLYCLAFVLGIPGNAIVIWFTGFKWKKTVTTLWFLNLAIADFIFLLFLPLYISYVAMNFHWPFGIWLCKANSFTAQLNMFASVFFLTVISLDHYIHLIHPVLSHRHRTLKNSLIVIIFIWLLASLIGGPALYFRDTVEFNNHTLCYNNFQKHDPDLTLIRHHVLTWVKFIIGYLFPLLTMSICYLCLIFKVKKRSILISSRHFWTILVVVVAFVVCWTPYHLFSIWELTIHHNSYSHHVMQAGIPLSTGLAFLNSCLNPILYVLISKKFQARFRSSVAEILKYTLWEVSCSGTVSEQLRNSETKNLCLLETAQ
Protocol: PathHunter eXpress Assays (DiscoverX) were performed in 384-well format according to the manufacturer’s recommendations. GPR1 cells were incubated with peptides for 90 min and luminescence measured using an EnSpire 2300 Multimode plate reader (PerkinElmer).

GPR1 [2] = molecular target: T1, GPR1; assay: β-arrestin recruitment (Tango), validation; type: cell-based; design: host or cells: HTLA cells (HEK293-derived)
GPR1 [3] = molecular target: T1, GPR1; assay: Dynamic mass redistribution (DMR), validation; type: cell-based; design: host or cells: HTLA cells (HEK293-derived)
Text: (§1) Supplement mmc7.xlsx, sheet "Peptide validation data" | column: Comment

GPR1 [4] = molecular target: T1, GPR1; assay: Real-time receptor internalization, validation; type: cell-based; design: host or cells: HTLA cells (HEK293-derived)
Text: as §1

human GPCRs = system: human GPCRs; design: method as in Guide to Pharmacology database; conditions: receptor gasr_human (CCKBR, P32239); max reported value; ref Guide to Pharmacology database; cited from earlier work
Text: Supplement mmc1.xlsx, sheet "HumanGPCRLigands" | column: pKi_value; pKd_value; pEC50_value; pIC50_value

GPR139 [5] = molecular target: T2, GPR139 (Homo sapiens, UniProt Q6DWJ6); assay: Repeat of proposed literature pairing (mass redistribution and/or internalization); type: cell-based; conditions: GPR139; mean, SEM and n; read-out: pEC50, DMR (peak) (converted)
T2 construct: hIL-2Ra signal peptide (N); expressed in transfected cells
T2 sequence (Q6DWJ6 2-353 limits assumed): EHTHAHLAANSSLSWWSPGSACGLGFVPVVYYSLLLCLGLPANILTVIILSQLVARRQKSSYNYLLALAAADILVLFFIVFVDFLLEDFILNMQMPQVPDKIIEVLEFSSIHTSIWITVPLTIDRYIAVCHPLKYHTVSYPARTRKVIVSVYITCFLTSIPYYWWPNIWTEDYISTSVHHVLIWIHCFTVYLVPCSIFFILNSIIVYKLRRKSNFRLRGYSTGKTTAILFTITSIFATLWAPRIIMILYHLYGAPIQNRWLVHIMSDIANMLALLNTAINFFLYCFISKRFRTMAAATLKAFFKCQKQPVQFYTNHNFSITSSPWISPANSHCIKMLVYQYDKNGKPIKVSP
Text: DMR assays provide a single integrated readout of ligand-dependent cellular response, utilizing an optical biosensor in specialized microplates to detect wavelength shifts of reflected light as it passes through the biosensor and the lower portion of the cell (∼150-200 nm). As a signal pathway agnostic approach, DMR assays are well-suited to the study of GPCRs ([Fang et al., 2008], [Schröder et al., 2011]). The mass redistribution response (Δ picometer (pm)) likely reflects a number of intracellular events, including cytoskeletal rearrangement, protein trafficking and receptor internalization. Orphan receptor-expressing cells were gently washed twice with assay buffer (HBSS with 1 mM CaCl2, 1 mM MgCl2, 20 mM HEPES, 0.01% pluronic F-68, pH 7.4) containing 0.1% DMSO and cells were equilibrated for 90 min at 22°C in the EPIC Benchtop (BT) System (Corning) to establish a stable DMR signal. After 3-5 min baseline recordings, peptides (10 μM) were added in duplicate wells using an electronic 384-channel Viaflo pipette (Integra Biosciences, Switzerland) and DMR responses were measured for 60 min at 22°C. 100 nM norepinephrine was included as an internal assay control to assess the cellular DMR response via endogenously-expressed adrenoceptors in the TREx 293 cells. Real-time data were processed using the BT to column converter MS-Excel macro (Corning) and analyzed in GraphPad Prism 7.0. DMR recordings in peptide screening experiments were buffer and solvent corrected and the area under the curve (AUC) was quantified. For subsequent validation experiments, peptides were diluted in assay buffer containing 0.1% DMSO and DMR assays were performed as above. […] Data represent mean ± standard error of the mean (SEM) from at least 3 biologically independent experiments.
A TR-FRET real-time internalization assay was used to examine peptide-dependent changes in orphan receptor localization as described previously ([Foster and Bräuner-Osborne, 2018]). Surface-expressed SNAP-tagged receptors were labeled with a cell-impermeable luminescent terbium cryptate (100 nM SNAP Lumi4-Tb; Cisbio, France) for 1 hr at 37°C. Cells were washed to remove excess terbium and incubated with fluorescein-O-acetic acid (100 μM; Sigma Aldrich) for 5 min at 37°C. Peptides were added as for DMR assays, and internalization responses were recorded for 60 min at 37°C using an EnVision 2104 Multimode plate reader (PerkinElmer). 100 nM GLP-1 was used as a positive control for SNAP-GLP1R internalization. Real-time internalization responses were calculated based on TR-FRET (excitation 340 nm; emission 520 nm and 615 nm), and were expressed as the ratio between donor (terbium) and acceptor (fluorescein) emission. For peptide screening analysis (both DMR and internalization assays), we calculated the area under the curve from the real-time traces. […] Validation experiments for receptor internalization were performed as above. Internalization data was processed in MS-Excel and area under the curve was used to generate concentration-response curves using GraphPad Prism 7.0. Data represent mean ± standard error of the mean (SEM) from at least 3 biologically independent experiments.

GPR139 [6] = molecular target: T2, GPR139; assay: IP1 accumulation; type: cell-based; conditions: mean, SEM and n, read-out: pEC50, IP1 (converted)
Text: Supplement mmc7.xlsx, sheet "Peptide validation data" | column: Emax; pEC50

[7] = molecular target: T3, bombesin receptor 3 (human) (UniProt P32247)
T3 sequence: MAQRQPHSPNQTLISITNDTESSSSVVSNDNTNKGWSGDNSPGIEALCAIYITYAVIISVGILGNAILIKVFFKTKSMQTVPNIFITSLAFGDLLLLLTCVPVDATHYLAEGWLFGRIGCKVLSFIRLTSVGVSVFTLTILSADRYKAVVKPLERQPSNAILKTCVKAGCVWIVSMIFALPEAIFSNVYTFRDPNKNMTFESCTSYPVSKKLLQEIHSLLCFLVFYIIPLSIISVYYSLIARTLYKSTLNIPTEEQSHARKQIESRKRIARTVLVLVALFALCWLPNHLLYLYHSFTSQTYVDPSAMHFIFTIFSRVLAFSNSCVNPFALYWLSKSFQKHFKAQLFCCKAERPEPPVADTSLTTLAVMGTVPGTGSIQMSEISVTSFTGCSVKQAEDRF

## Neuropeptide SF (SQAFLFQPQRF-NH2)
NPFF2
  Confirmed? (confirmation of b-arrestin recruitment): No

## CSCC[C@H](NC(=O)[C@H](Cc1c[nH]c2ccccc12)NC(=O)CNC(=O)[C@H](Cc1ccc(O)cc1)NC(=O)[C@H](C)NC(=O)[C@H](CCC(=O)O)NC(=O)[C@H](CCC(=O)O)NC(=O)[C@H](CCC(=O)O)NC(=O)[C@H](CCC(=O)O)NC(=O)[C@H](CCC(=O)O)NC(=O)[C@H](CC(C)C)NC(=O)[C@H](Cc1c[nH]c2ccccc12)NC(=O)[C@@H]1CCCN1C(=O)CNC(=O)[C@@H](N)CCC(N)=O)C(=O)N[C@@H](CC(=O)O)C(=O)N[C@@H](Cc1ccccc1)C(N)=O [Peptide 118, Gastrin-17, reference compound]
GPR1 [1]
  Emax, PathHunter (fold over basal): 3.5 fold over basal
  pEC50, PathHunter (fold over basal): 5.24
GPR1 [1]; PathHunter eXpress GPR1 cells, 90 min, luminescence, mean ± SEM of 3-4 independent experiments in triplicate, read-out: pEC50, β-arrestin recruitment (PathHunter), GPR1 (converted)
  EC50: 6.31 µM
GPR1 [2]; GPR1, mean, SEM and n
  Emax, Tango (fold over basal): 9.8 fold over basal
GPR1 [2]; HTLA cells transiently transfected, overnight stimulation, luciferase, mean ± SEM of 3-4 independent experiments in triplicate, read-out: pEC50, β-arrestin recruitment (Tango), GPR1 (converted)
  EC50: > 10 µM
GPR1 [2]; pEC50, Tango (fold over basal), GPR1, mean, SEM and n
  EC50: 102 µM
GPR1 [3]
  Comment on response, DMR (AUC); Emax and pEC50 n.d.: No response; known CCK receptor agonist
GPR1 [4]
  Comment on response, Internalization (AUC); Emax and pEC50 n.d.: No response; known CCK receptor agonist

## KAPSGRMSIVKNLQNLDPSHRISDRDYMGWMDF [Peptide 194, cholecystokinin (CCK-33), reference compound]
GPR1 [1]
  Emax, PathHunter (fold over basal): 5.7 fold over basal
  pEC50, PathHunter (fold over basal): 8.01
Human GPCRs
  pIC50_value: 8.8
GPR1 [2]; GPR1, mean, SEM and n
  Emax, Tango (fold over basal): 15.0 fold over basal
  pEC50, Tango (fold over basal): 5.28
GPR1 [3]
  Comment on response, DMR (AUC); Emax and pEC50 n.d.: No response; Known CCK receptor agonist
GPR1 [4]
  Comment on response, Internalization (AUC); Emax and pEC50 n.d.: No response; Known CCK receptor agonist

## KRSFSGFGSPLDRLSAGSVDHK [Processed Osteocrin_(-2-19)]
GPR1 [1]
  Emax, PathHunter (fold over basal): 8.0 fold over basal
  pEC50, PathHunter (fold over basal): 6.18
GPR1 [2]; GPR1, mean, SEM and n
  Emax, Tango (fold over basal): 14.4 fold over basal
  pEC50, Tango (fold over basal): 5.60
GPR1 [3]
  Comment on response, DMR (AUC); Emax and pEC50 n.d.: No response
GPR1 [4]
  Comment on response, Internalization (AUC); Emax and pEC50 n.d.: No response

## Neuropeptide NPVF; RFRP-3
NPFF2
  Confirmed? (confirmation of b-arrestin recruitment): No

## CSCC[C@H](NC(=O)[C@H](CO)NC(=O)[C@H](Cc1ccc(O)cc1)NC(=O)[C@@H](N)CO)C(=O)N[C@@H](CCC(=O)O)C(=O)N[C@@H](Cc1cnc[nH]1)C(=O)N[C@@H](Cc1ccccc1)C(=O)N[C@@H](CCCNC(=N)N)C(=O)N[C@@H](Cc1c[nH]c2ccccc12)C(=O)NCC(=O)N[C@@H](CCCCN)C(=O)N1CCC[C@H]1C(=O)N[C@H](C(=O)NCC(=O)N[C@@H](CCCCN)C(=O)N[C@@H](CCCCN)C(=O)N[C@@H](CCCNC(=N)N)C(=O)N[C@@H](CCCNC(=N)N)C(=O)N1CCC[C@H]1C(=O)N[C@H](C(=O)N[C@@H](CCCCN)C(=O)N[C@H](C(=O)N[C@@H](Cc1ccc(O)cc1)C(=O)N1CCC[C@H]1C(=O)N[C@@H](CC(N)=O)C(=O)NCC(=O)N[C@@H](C)C(=O)N[C@@H](CCC(=O)O)C(=O)N[C@@H](CC(=O)O)C(=O)N[C@@H](CCC(=O)O)C(=O)N[C@@H](CO)C(=O)N[C@@H](C)C(=O)N[C@@H](CCC(=O)O)C(=O)N[C@@H](C)C(=O)N[C@@H](Cc1ccccc1)C(=O)N1CCC[C@H]1C(=O)N[C@@H](CC(C)C)C(=O)N[C@@H](CCC(=O)O)C(=O)N[C@@H](Cc1ccccc1)C(=O)O)C(C)C)C(C)C)C(C)C [Corticotropin, ACTH] (H-SYSMEHFRWGKPVGKKRRPVKVYPNGAEDESAEAFPLEF-OH)
GPR139 [5]
  EC50: 0.0661 µM
GPR139 [6]
  EC50: 1.15 µM

## Neuropeptide RFRP-1 (MPHSFANLPLRF-NH2)
NPFF2
  Confirmed? (confirmation of b-arrestin recruitment): No

## GNLWATGHFM [neuromedin B]
[7]
  pEC50 of neuromedin B responses in G (q/11) signaling assays (IP1 generation): 6.39 pEC50
  pEC50 of neuromedin B responses in mass redistribution: 7.43 pEC50

From paper PMC6838683, “Discovery of Human Signaling Systems: Pairing Peptides to G Protein-Coupled Receptors” (Cell, 2019)
